# Values of other authors as cited in patent US8563014B2, “Modafinil oral lyophilizate” (Teva Sante, priority 2004, dated 2013).
# Legend:
# monkeys = conditions: single administration
# mice = conditions: single administration
structure (smiles),measurement,setting,value
"NC(=O)C[S+]([O-])C(c1ccccc1)c1ccccc1 (centres unmarked) [modafinil, 2-(benzhydrylsulfinyl)acetamide]",Nocturnal activity,monkeys,increased nocturnal activity
same,Locomotor activity,mice,increased locomotor activity
